Experiments:
[1] = molecular target: T1, cytoplasmic domain of the human VEGF receptor (VEGFR-2) (Homo sapiens, UniProt P35968); assay: KDR Assay; type: biochemical; details: His-VEGFR-2; 3.6 μM ATP
T1 construct: The cytoplasmic domain of the human VEGF receptor (VEGFR-2) was expressed as a Histidine-tagged fusion protein; Histidine tag
In short: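 His-tagged human VEGFR-2 cytoplasmic domain from baculovirus-infected insect cells, acting on poly-Glu-Tyr (4:1)-coated plates with 3.6 μM ATP in Hepes pH 7.4 with MgCl2/MnCl2 and 5% final DMSO, 10 min at 25 °C. Phosphotyrosine detected by peroxidase-conjugated antibody ELISA at 492 nm; IC50 from blank-subtracted OD versus concentration.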

[2] = tested on: VEGF-induced EBD extravasation; assay: VEGF-induced Dermal Extravasation in Guinea Pig (Miles Assay); type: in vivo; details: 75 mg/kg, corn oil, oral
Description: VEGF-induced Dermal Extravasation in Guinea Pig (Miles Assay). Male Hartley guinea pigs (300-600 g) were anesthetized with isofluorane, sheared, and given a single dose of drug or the respective vehicle. The guinea pigs were dosed orally unless indicated otherwise in Table 3. Ten minutes prior to the end of drug treatment, guinea pigs were anesthetized with isofluorane, and 0.5% Evans blue dye (EBD) in PBS (13-15 mg/kg dose of EBD) was injected intravenously. After 5 minutes, triplicate intradermal injections of 100 ng rhVEGF165 in 100 μl PBS and of 100 μl PBS alone were administered on the flank. After 20 minutes, each animal was euthanized with Pentosol, and the skin containing the intradermal injection sites was removed for image analysis.
Using an analog video camera coupled to a PC, an image of each trans-illuminated skin sample was captured, and the integrated optical density of each injection site was measured using ImagePro 4. For each skin sample, the difference between the mean optical density of the VEGF sites and mean optical density of the PBS sites is the measure of VEGF-induced EBD extravasation in that animal. These measured values were averaged per study group to determine the mean VEGF-induced EBD extravasation for each experimental condition, and the group means were then compared to assess inhibition of VEGF-induced EBD extravasation in the drug-treated groups relative to the vehicle-treated controls.
To determine the dose required for 50% inhibition (ID50), the percent inhibition data was plotted as a function of oral dose, using the ‘best-fit’ analysis within MicroSoft Excel software. The ID50 value was verified visually by using the plotted data (horizontal line from 50% y value, at intersection with best-fit line drop vertical line to x axis (dose)).

[3] = tested on: VEGF induced increases in intracellular calcium levels in HUVEC (human umbilical vein endothelial cells); assay: VEGF Stimulated Ca++ Signal in vitro (FLIPR); type: cell-based; details: VEGF 5 ng/mL; for IC50: 0.01 to 10.0 μM
In short: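 HUVEC loaded with Fluo-4 (45 min, 37° C.), washed, then pre-incubated 30 min with compound (10 μM single dose or 0.01–10.0 μM; 0.1% DMSO) before 5 ng/mL VEGF. Fluorescence at 516 nm read by FLIPR; IC50 from % inhibition of max-min VEGF response.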

T1 sequence (P35968 786-1356): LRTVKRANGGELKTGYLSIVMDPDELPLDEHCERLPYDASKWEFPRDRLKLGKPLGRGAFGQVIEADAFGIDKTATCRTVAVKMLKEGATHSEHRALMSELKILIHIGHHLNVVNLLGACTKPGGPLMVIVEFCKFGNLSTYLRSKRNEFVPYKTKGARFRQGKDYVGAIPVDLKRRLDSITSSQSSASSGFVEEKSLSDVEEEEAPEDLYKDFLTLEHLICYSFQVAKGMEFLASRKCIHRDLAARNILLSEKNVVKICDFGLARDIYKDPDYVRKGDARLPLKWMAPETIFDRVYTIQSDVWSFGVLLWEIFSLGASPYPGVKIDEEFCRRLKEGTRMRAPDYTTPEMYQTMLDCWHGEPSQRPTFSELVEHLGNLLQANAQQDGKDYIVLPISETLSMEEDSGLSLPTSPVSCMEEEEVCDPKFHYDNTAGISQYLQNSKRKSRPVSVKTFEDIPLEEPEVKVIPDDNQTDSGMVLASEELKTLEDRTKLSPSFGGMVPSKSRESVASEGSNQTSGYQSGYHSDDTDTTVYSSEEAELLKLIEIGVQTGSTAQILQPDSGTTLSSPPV

| SMILES | IC50 [1] | Miles Assay % inhibition [2] | inhibition at 10 µM ([3]; Homo sapiens, 10 μM) | IC50 ([3]; Homo sapiens) | IC50 [3] | VEGF Stimulated Ca^++ signal assay % inhibition @ 10 μM ([3]; 10 μM) |
| --- | --- | --- | --- | --- | --- | --- |
| CCN(CC)CCCOc1ccc(NC=C2C(=O)Nc3cccc(C)c32)cc1F [Example 249, 3-{[4-(3-Diethylamino-propoxy)-3-fluoro-phenylamino]-methylene}-4-methyl-1,3-dihydro-indol-2-one] | 0.07 µM | 29% |  |  |  |  |
| O=C(O)CCCc1ccc(NC=C2C(=O)Nc3ccc(Cl)cc32)cc1 [Example 150, 4-{4-[(5-Chloro-2-oxo-1,2-dihydro-indol-3-ylidenemethyl)-amino]-phenyl}-butyric acid] | 0.3 µM |  | 90.9% | 1.85 µM |  |  |
| Cc1cccc2c1C(=CNc1cccc(CO)c1)C(=O)N2 [Example 185, 3-[(3-Hydroxymethyl-phenylamino)-methylene]-4-methyl-1,3-dihydro-indol-2-one] | 0.33 µM |  | 98.4% | ≤ 1 µM | 0.87 µM |  |
| CCN(CC)Cc1cc(NC=C2C(=O)Nc3ccccc32)ccc1O [Example 160, 3-[(3-Diethylaminomethyl-4-hydroxy-phenylamino)-methylene]-1,3-dihydro-indol-2-one] | 0.7 µM |  | 91.4% | 1.29 µM |  |  |
| COc1ccc(NC=C2C(=O)Nc3ccccc32)cc1 [Example 7, 3-[(4-Methoxy-phenylamino)-methylene]-1,3-dihydro-indol-2-one] | 0.69 µM |  | 94.5% | ≤ 1 µM | 0.95 µM |  |
| CCc1ccc(NC=C2C(=O)Nc3ccc(Cl)cc32)cc1 [Example 149, 5-Chloro-3-[(4-ethyl-phenylamino)-methylene]-1,3-dihydro-indol-2-one] | 0.62 µM |  | 17.7% |  |  |  |
| Cc1ccc(NC=C2C(=O)Nc3ccccc32)cc1O [Example 48, 3-[(3-Hydroxy-4-methyl-phenylamino)-methylene]-1,3-dihydro-indol-2-one] | 0.74 µM |  | 95.4% |  |  |  |
| O=C1Nc2ccc(Cl)cc2C1=CNc1ccc(CN2CCCCC2)cc1 [Example 260, 5-Chloro-3-[(4-piperidin-1-ylmethyl-phenylamino)-methylene]-1,3-dihydro-indol-2-one] | 0.3 µM |  |  | ≤ 1 µM | 0.88 µM |  |
| Cc1cccc2c1C(=CNc1cccc(S(=O)(=O)N(CCO)CCO)c1)C(=O)N2 [Example 191, N,N-Bis-(2-hydroxy-ethyl)-3-[(4-methyl-2-oxo-1,2-dihydro-indol-3-ylidenemethyl)-amino]-benzenesulfonamide] | 0.7 µM |  | 98.7% | 2.41 µM |  |  |
| COc1ccc(NC=C2C(=O)Nc3ccc(Cl)cc32)cc1O [Example 65, 3-[(3-Hydroxy-4-methoxyphenylamino)-methylene]-5-chloro-1,3-dihydro-indol-2-one] | 0.53 µM |  | 95.5% | 1.1 µM |  |  |
| NC(=O)c1ccc(NC=C2C(=O)Nc3ccccc32)cc1 [Example 33, 3-[(4-Benzamidylamino)-methylene]-1,3-dihydro-indol-2-one] | 0.88 µM |  | 95.9% | 1.35 µM |  |  |
| O=C(O)CCc1cccc(NC=C2C(=O)Nc3ccc(F)cc32)c1 [Example 175, 3-{3-[(5-Fluoro-2-oxo-1,2-dihydro-indol-3-ylidenemethyl)-amino]-phenyl}-propionic acid] | 0.71 µM |  | 38% |  |  |  |
| O=C1Nc2cccc(F)c2C1=CNc1ccc(CCN2CCCCC2)cc1 [Example 287, 4-Fluoro-3-{[4-(2-piperidin-1-yl-ethyl)-phenylamino]-methylene}-1,3-dihydro-indol-2-one] | 0.11 µM |  |  | ≤ 1 µM | 0.62 µM |  |
| NC(=O)c1ccc(NC=C2C(=O)Nc3ccc(F)cc32)cc1 [Example 170, 4-[(5-Fluoro-2-oxo-1,2-dihydro-indol-3-ylidenemethyl)-amino]-benzamide] | 0.41 µM |  | 96.7% | ≤ 1 µM | 0.59 µM |  |
| Cc1cccc2c1C(=CNc1cccc(S(=O)(=O)NCCCO)c1)C(=O)N2 [Example 194, N-(3-Hydroxy-propyl)-3-[(4-methyl-2-oxo-1,2-dihydro-indol-3-ylidenemethyl)-amino]-benzenesulfonamide] | 0.66 µM |  | 96.9% | 2.67 µM |  |  |
| O=C1Nc2ccc([N+](=O)[O-])cc2C1=CNc1ccc(N2CCOCC2)cc1 [Example 236, 3-[(4-Morpholin-4-yl-phenylamino)-methylene]-5-nitro-1,3-dihydro-indol-2-one] | 0.97 µM |  | 7.2% |  |  |  |
| CC(C)(C)OC(=O)Nc1ccc(NC=C2C(=O)Nc3ccccc32)cc1 [Example 186, {4-[(2-Oxo-1,2-dihydro-indol-3-ylidenemethyl)-amino]-phenyl}-carbamic acid tert-butyl ester] | 0.89 µM |  | 99% | 1.92 µM |  |  |
| O=C1Nc2ccc(Cl)cc2C1=CNc1ccc(CN2CCOCC2)cc1 [Example 291, 5-Chloro-3-[(4-morpholin-4-ylmethyl-phenylamino)-methylene]-1,3-dihydro-indol-2-one] | 0.21 µM |  |  | ≤ 1 µM | 0.66 µM |  |
| COc1ccc(NC=C2C(=O)Nc3cccc(C)c32)cc1F [Example 91, 3-[(3-Fluoro-4-methoxy-phenylamino)-methylene]-4-methyl-1,3-dihydro-indol-2-one] | 0.24 µM |  | 93.5% | 3.02 µM |  |  |
| COc1cccc(NC=C2C(=O)Nc3ccccc32)c1 [Example 94, 3-[(3-Methoxy-phenylamino)-methylene]-1,3-dihydro-indol-2-one] | 0.64 µM |  | 92.5% | 3.88 µM |  |  |
| COc1ccc(NC=C2C(=O)Nc3ccccc32)cc1O [Example 49, 3-[(3-Hydroxy-4-methoxy-phenylamino)-methylene]-1,3-dihydro-indol-2-one] | 0.51 µM |  | 97.1% |  |  |  |
| O=C1Nc2ccc(F)cc2C1=CNc1ccc(CN2CCCCC2)cc1 [Example 258, 5-Fluoro-3-[(4-piperidin-1-ylmethyl-phenylamino)-methylene]-1,3-dihydro-indol-2-one] | 0.56 µM |  |  | ≤ 1 µM | 0.72 µM |  |
| O=C1Nc2ccc(Cl)cc2C1=CNc1ccc2[nH]ccc2c1 [Example 110, 5-(5-Chloro-2-oxo-1,2-dihydro-indol-3-ylidenemethylamino)indole] | 0.57 µM |  | 95% | 1.55 µM |  |  |
| O=C1Nc2ccc(F)cc2C1=CNc1ccc2[nH]ccc2c1 [Example 162, 5-Fluoro-3-[(1 h-indol-5-ylamino)-methylene]-1,3-dihydro-indol-2-one] | 0.3 µM |  | 89.9% | 1.05 µM |  |  |
| Cc1cccc2c1C(=CNc1ccc(NCCN3CCOCC3)cc1)C(=O)N2 [Example 242, 4-Methyl-3-{[4-(2-morpholin-4-yl-ethylamino)-phenylamino]-methylene}-1,3-dihydro-indol-2-one] | 0.07 µM |  | 95.8% |  |  |  |
| COc1ccc(NC=C2C(=O)Nc3ccc(F)cc32)cc1F [Example 172, 5-Fluoro-3-[(3-fluoro-4-methoxy-phenylamino)-methylene]-1,3-dihydro-indol-2-one] | 0.69 µM |  | 93.3% | 1.4 µM |  |  |
| NS(=O)(=O)c1ccc(NC=C2C(=O)Nc3ccccc32)cc1 [Example 38, 2-Oxo-1,2-dihydro-indol-3-ylidenemethyl-sulfanilamide] | 0.5 µM |  |  |  | 1.45 µM | 92.08% |
| CCc1ccc(NC=C2C(=O)Nc3cccc(C)c32)cc1 [Example 151, 3-[(4-Ethyl-phenylamino)-methylene]-4-methyl-1,3-dihydro-indol-2-one] | 0.46 µM |  | 50.8% |  |  |  |
| COc1ccc(NC=C2C(=O)Nc3ccc(F)cc32)cc1 [Example 222, 5-Fluoro-3-[(4-methoxy-phenylamino)-methylene]-1,3-dihydro-indol-2-one] | 0.47 µM |  | 48.8% |  |  |  |
| Cc1cccc2c1C(=CNc1ccc(C(C)C)cc1)C(=O)N2 [Example 123, 3-[(4-Isopropyl-phenylamino)-methylene]-4-methyl-1,3-dihydro-indol-2-one] | 0.59 µM |  | 49.9% | 4.43 µM |  |  |

Reference: patent publication US20030225152A1, “3-(Arylamino)methylene-1, 3-dihydro-2h-indol-2-ones as kinase inhibitors” (priority 2001, published 2003)
